Results from US20240132484A1, “BROAD SPECTRUM ANTIVIRAL COMPOUNDS TARGETING THE SKI COMPLEX” (priority 2020, published 2024).
Where “and” joins values, the source holds several entries; their conditions need not be identical. Equal entries are not always repeated. Where two headings read alike, the source gives them in different places.

What was measured:
SARS2 = type: cell-based, SARS-CoV-2; conditions: for Percentage Infection Relative to Appropriate DMSO Control with Avg Background Subtraction: Greiner Celigo plates; for Percentage Inhibition Average 1 μM / Screening data (Relative infection to DMSO controls) Average 1 μM: SARS2, 1 μM; for Screening data (Relative infection to DMSO controls) Average 1 μM / Screening data (Relative infection to DMSO controls) Average 5 μM / Screening data (Relative infection to DMSO controls) Average 10 μM / Screening data (Relative infection to DMSO controls) Average 25 μM / Screening data (Relative infection to DMSO controls) Average 50 μM / Average (relative infection to DMSO over the 5 tested concentrations): 100=DMSO control; for Percentage Inhibition Average 5 μM / Screening data (Relative infection to DMSO controls) Average 5 μM: SARS2, 5 μM; for Percentage Inhibition Average 10 μM / Screening data (Relative infection to DMSO controls) Average 10 μM: SARS2, 10 μM; for Percentage Inhibition Average 25 μM / Screening data (Relative infection to DMSO controls) Average 25 μM: SARS2, 25 μM; for Percentage Inhibition Average 50 μM / Screening data (Relative infection to DMSO controls) Average 50 μM: SARS2, 50 μM; for Average (relative infection to DMSO over the 5 tested concentrations): SARS2, average over 1 to 50 uM; for Infection Data, Average, Mean: average of Exp 1-3 (SMW475, SMW477, SMW478)
cells (nuclei count) = conditions: for Relative cell count to DMSO controls, Average 1 μM / Relative cell count to DMSO controls, Average 5 μM / Relative cell count to DMSO controls, Average 10 μM / Relative cell count to DMSO controls, Average 25 μM / Relative cell count to DMSO controls, Average 50 μM: toxicity data, 100=DMSO control; for Toxicity Data, Average, Mean: average of Exp 1-3 (SMW475, SMW477, SMW478); for Relative cell count to DMSO controls, Average (for correlation analysis): average value over the 5 tested concentrations (1 to 50 uM)

## CCN(CC)CCN(Cc1cccs1)C(=O)c1cccs1 [SILCS34]
SARS2; Exp 1 (SMW475), 1 uM
  Percentage Infection Relative to Appropriate DMSO Control with Avg Background Subtraction: 84.46% and 79.06% and 78.77%
SARS2; Exp 1 (SMW475), 5 uM
  Percentage Infection Relative to Appropriate DMSO Control with Avg Background Subtraction: 83.89% and 91.52% and 85.89%
SARS2; Exp 1 (SMW475), 10 uM
  Percentage Infection Relative to Appropriate DMSO Control with Avg Background Subtraction: 120.42% and 77.92% and 112.44%
SARS2; Exp 1 (SMW475), 25 uM
  Percentage Infection Relative to Appropriate DMSO Control with Avg Background Subtraction: 73.54% and 67.42% and 88.43%
SARS2; Exp 1 (SMW475), 50 uM
  Percentage Infection Relative to Appropriate DMSO Control with Avg Background Subtraction: 98.27% and 86.62% and 67.73%
SARS2; Exp 2 (SMW477), 1 uM
  Percentage Infection Relative to Appropriate DMSO Control with Avg Background Subtraction: 117.81% and 129.29% and 121.32%
SARS2; Exp 2 (SMW477), 5 uM
  Percentage Infection Relative to Appropriate DMSO Control with Avg Background Subtraction: 137.43% and 146.89% and 126.80%
SARS2; Exp 2 (SMW477), 10 uM
  Percentage Infection Relative to Appropriate DMSO Control with Avg Background Subtraction: 142.94% and 144.38% and 155.80%
SARS2; Exp 2 (SMW477), 25 uM
  Percentage Infection Relative to Appropriate DMSO Control with Avg Background Subtraction: 109.38% and 111.61% and 103.44%
SARS2; Exp 2 (SMW477), 50 uM
  Percentage Infection Relative to Appropriate DMSO Control with Avg Background Subtraction: 62.30% and 66.46% and 58.63%
SARS2; Exp 3 (SMW478), 1 uM
  Percentage Infection Relative to Appropriate DMSO Control with Avg Background Subtraction: 120.13% and 101.31% and 117.84%
SARS2; Exp 3 (SMW478), 5 uM
  Percentage Infection Relative to Appropriate DMSO Control with Avg Background Subtraction: 108.72% and 96.17% and 137.98%
SARS2; Exp 3 (SMW478), 10 uM
  Percentage Infection Relative to Appropriate DMSO Control with Avg Background Subtraction: 127.49% and 93.45% and 116.79%
SARS2; Exp 3 (SMW478), 25 uM
  Percentage Infection Relative to Appropriate DMSO Control with Avg Background Subtraction: 164.75% and 165.91% and 139.33%
SARS2; Exp 3 (SMW478), 50 uM
  Percentage Infection Relative to Appropriate DMSO Control with Avg Background Subtraction: 145.01% and 171.02% and 138.34%
SARS2
  Percentage Inhibition Average 1 μM: −5.55%
  Screening data (Relative infection to DMSO controls) Average 1 μM: 105.55
  Percentage Inhibition Average 5 μM: −12.81%
  Screening data (Relative infection to DMSO controls) Average 5 μM: 112.81
  Percentage Inhibition Average 10 μM: −21.29%
  Screening data (Relative infection to DMSO controls) Average 10 μM: 121.29
  Percentage Inhibition Average 25 μM: −13.76%
  Screening data (Relative infection to DMSO controls) Average 25 μM: 113.76
  Percentage Inhibition Average 50 μM: 0.62%
  Screening data (Relative infection to DMSO controls) Average 50 μM: 99.38
  Average (relative infection to DMSO over the 5 tested concentrations): 110.56
SARS2; n 9, 1 uM
  Infection Data, Average, Mean: 105.55%
SARS2; n 9, 5 uM
  Infection Data, Average, Mean: 112.81%
SARS2; n 9, 10 uM
  Infection Data, Average, Mean: 121.29%
SARS2; n 9, 25 uM
  Infection Data, Average, Mean: 113.76%
SARS2; n 9, 50 uM
  Infection Data, Average, Mean: 99.38%
Cells (nuclei count)
  Relative cell count to DMSO controls, Average 1 μM: 102.47
  Relative cell count to DMSO controls, Average 5 μM: 99.62
  Relative cell count to DMSO controls, Average 10 μM: 91
  Relative cell count to DMSO controls, Average 25 μM: 89.42
  Relative cell count to DMSO controls, Average 50 μM: 67.85
  Relative cell count to DMSO controls, Average (for correlation analysis): 90.07
Cells (nuclei count); n 9, 1 uM
  Toxicity Data, Average, Mean: 102.47%
Cells (nuclei count); n 9, 5 uM
  Toxicity Data, Average, Mean: 99.62%
Cells (nuclei count); n 9, 10 uM
  Toxicity Data, Average, Mean: 91.00%
Cells (nuclei count); n 9, 25 uM
  Toxicity Data, Average, Mean: 89.42%
Cells (nuclei count); n 9, 50 uM
  Toxicity Data, Average, Mean: 67.85%

## CC1=C(C(=O)NCC2CCCCC2)C(c2cc(C)c(Br)s2)NC(=O)N1 (centres unmarked) [SILCS68]
SARS2
  Percentage Inhibition Average 1 μM: 32.72%
  Screening data (Relative infection to DMSO controls) Average 1 μM: 67.28
  Percentage Inhibition Average 5 μM: 28.63%
  Screening data (Relative infection to DMSO controls) Average 5 μM: 71.37
  Percentage Inhibition Average 10 μM: 16.60%
  Screening data (Relative infection to DMSO controls) Average 10 μM: 83.40
  Percentage Inhibition Average 25 μM: −10.69%
  Screening data (Relative infection to DMSO controls) Average 25 μM: 110.69
  Percentage Inhibition Average 50 μM: 20.80%
  Screening data (Relative infection to DMSO controls) Average 50 μM: 79.20
  Average (relative infection to DMSO over the 5 tested concentrations): 82.39
Cells (nuclei count)
  Relative cell count to DMSO controls, Average 1 μM: 117.26
  Relative cell count to DMSO controls, Average 5 μM: 114.63
  Relative cell count to DMSO controls, Average 10 μM: 110.48
  Relative cell count to DMSO controls, Average 25 μM: 100.14
  Relative cell count to DMSO controls, Average 50 μM: 91.82
  Relative cell count to DMSO controls, Average (for correlation analysis): 106.87
